The compounds below were run on NRF2 (NQO1 activity as marker for NRF2 activation), BEAS-2B cells (assay: BEAS-2B NQO1 MTT Assay). Details: Homo sapiens, EC50 of NQO1 specific activity induction, 48 hours incubation, read-out: EC50.
Format: cell-based
Description: NAD(P)H:quinone oxidoreductase 1 (NQO1), also called DT diaphorase, is a homodimeric FAD-containing enzyme that catalyzes obligatory NAD(P)H-dependent two-electron reductions of quinones and protects cells against the toxic and neoplastic effects of free radicals and reactive oxygen species arising from one-electron reductions. The transcription of NQO1 is finely regulated by NRF2, and thus NQO1 activity is a good marker for NRF2 activation. On day one, frozen BEAS-2B cells (ATCC) are thawed in a water bath, counted, and re-suspended at a concentration of 250,000 cells/mL. Fifty microliters of cells are plated in 384 well black clear-bottomed plates. Plates are incubated at 37° C., 5% CO2 overnight. On day two, plates are centrifuged and 50 nL of compound or controls are added to the cells. Plates are then incubated at 37° C., 5% CO2 for 48 hours. On day four, medium is aspirated from the plate and crude cell lysates are made by adding 13 uL of 1× Cell Signaling Technologies lysis buffer with 1 Complete, Mini, EDTA-free Protease Inhibitor Tablet (Roche) for each 10 mL of lysis buffer. After lysis plates are incubated for 20 minutes at room temperature. Two microliters of lysate are removed for use in Cell Titer Glo assay (Promega) and MTT cocktail is prepared (Prochaska et. al. 1998) for measurement of NQO1 activity. Fifty microliters of MTT cocktail is added to each well, plate is centrifuged, and analyzed on an Envision plate reader (Perkin Elmer) using Absorbance 570 nm label for 30 minutes. Product formation is measured kinetically and the EC50 of NQO1 specific activity induction is calculated by plotting the change in absorbance (Delta OD/min) versus the log of compound concentration followed by 3-parameter fitting.
EC50s<1 nM (+++++), EC50s 1 nM-10 nM (++++), EC50s 10 nM-100 nM (+++), EC50s 100 nM-1 uM (++), EC50s 1-10 uM (+), EC50s>10 uM (−), or were not determined (ND).
In the case of `CC[C@@H]1CN(Cc2cc(C(CC(=O)Nc3cccnc3)c3ccc(C#N)cc3C)ccc2C)S(=O)(=O)c2cccnc2O1` (single isomer, unassigned) [Example 69], the EC50 is reported as 100 to 1000 nM.
With `CC[C@@H]1CN(Cc2cc([C@H](CC(=O)Nc3cccnc3)c3ccc4c(nnn4CC)c3C)ccc2C)S(=O)(=O)c2cccnc2O1` [Example 1, (S)-3-(3-(((R)-4-Ethyl-1,1-dioxido-3,4-dihydro-2H-pyrido[2,3-b][1,4,5]oxathiazepin-2-yl)methyl)-4-methylphenyl)-3-(1-ethyl-4-methyl-1H-benzo[d][1,2,3]triazol-5-yl)-N-(pyridin-3-yl)propanamide] the EC50 was 10 to 100 nM.
Compound `CC[C@@H]1CN(Cc2cc([C@H](CC(=O)Nc3cnsc3)c3ccc4c(nnn4CC)c3C)ccc2C)S(=O)(=O)c2cccnc2O1` [Example 2, (S)-3-(3-(((R)-4-Ethyl-1,1-dioxido-3,4-dihydro-2H-pyrido[2,3-b][1,4,5]oxathiazepin-2-yl)methyl)-4-methylphenyl)-3-(1-ethyl-4-methyl-1H-benzo[d][1,2,3]triazol-5-yl)-N-(isothiazol-4-yl)propanamide] has an EC50 of 10 to 100 nM.
With `CC[C@@H]1CN(Cc2cc([C@H](CC(=O)NCc3ncco3)c3ccc4c(nnn4CC)c3C)ccc2C)S(=O)(=O)c2cccnc2O1` [Example 3, (S)-3-(3-(((R)-4-Ethyl-1,1-dioxido-3,4-dihydro-2H-pyrido[2,3-b][1,4,5]oxathiazepin-2-yl)methyl)-4-methylphenyl)-3-(1-ethyl-4-methyl-1H-benzo[d][1,2,3]triazol-5-yl)-N-(oxazol-2-ylmethyl)propanamide] the EC50 was 100 to 1000 nM.
In the case of `CC[C@@H]1CN(Cc2cc([C@H](CC(=O)NC3COC3)c3ccc4c(nnn4CC)c3C)ccc2C)S(=O)(=O)c2cccnc2O1` [Example 4, (S)-3-(3-(((R)-4-Ethyl-1,1-dioxido-3,4-dihydro-2H-pyrido[2,3-b][1,4,5]oxathiazepin-2-yl)methyl)-4-methylphenyl)-3-(1-ethyl-4-methyl-1H-benzo[d][1,2,3]triazol-5-yl)-N-(oxetan-3-yl)propanamide], the EC50 is reported as 100 to 1000 nM.
Compound `CC[C@@H]1CN(Cc2cc([C@H](CC(=O)NC3CCS(=O)(=O)C3)c3ccc4c(nnn4CC)c3C)ccc2C)S(=O)(=O)c2cccnc2O1` (stereo partly drawn) [Example 5, (3S)-N-(1,1-Dioxidotetrahydrothiophen-3-yl)-3-(3-(((R)-4-ethyl-1,1-dioxido-3,4-dihydro-2H-pyrido[2,3-b][1,4,5]oxathiazepin-2-yl)methyl)-4-methylphenyl)-3-(1-ethyl-4-methyl-1H-benzo[d][1,2,3]triazol-5-yl)propanamide] has an EC50 of 100 to 1000 nM.
Compound `CC[C@@H]1CN(Cc2cc([C@H](CC(=O)n3ccc(N)n3)c3ccc4c(nnn4CC)c3C)ccc2C)S(=O)(=O)c2cccnc2O1` [Example 6, (S)-1-(3-Amino-1H-pyrazol-1-yl)-3-(3-(((R)-4-ethyl-1,1-dioxido-3,4-dihydro-2H-pyrido[2,3-b][1,4,5]oxathiazepin-2-yl)methyl)-4-methylphenyl)-3-(1-ethyl-4-methyl-1H-benzo[d][1,2,3]triazol-5-yl)propan-1-one] has an EC50 of 1 to 10 nM.
In the case of `CC[C@@H]1CN(Cc2cc([C@H](CC(=O)n3nccc3N)c3ccc4c(nnn4CC)c3C)ccc2C)S(=O)(=O)c2cccnc2O1` [Example 7, (S)-1-(5-Amino-1H-pyrazol-1-yl)-3-(3-(((R)-4-ethyl-1,1-dioxido-3,4-dihydro-2H-pyrido[2,3-b][1,4,5]oxathiazepin-2-yl)methyl)-4-methylphenyl)-3-(1-ethyl-4-methyl-1H-benzo[d][1,2,3]triazol-5-yl)propan-1-one], the EC50 is reported as 1 to 10 nM.
`CC[C@@H]1CN(Cc2cc([C@H](CC(=O)NCc3ncc[nH]3)c3ccc4c(nnn4CC)c3C)ccc2C)S(=O)(=O)c2cccnc2O1` [Example 8, (S)-N-((1H-Imidazol-2-yl)methyl)-3-(3-(((R)-4-ethyl-1,1-dioxido-3,4-dihydro-2H-pyrido[2,3-b][1,4,5]oxathiazepin-2-yl)methyl)-4-methylphenyl)-3-(1-ethyl-4-methyl-1H-benzo[d][1,2,3]triazol-5-yl)propanamide] was tested, and the EC50 was 100 to 1000 nM.
With `CC[C@@H]1CN(Cc2cc([C@H](CC(=O)Nc3ccnn3C)c3ccc4c(nnn4CC)c3C)ccc2C)S(=O)(=O)c2cccnc2O1` [Example 9, (S)-3-(3-(((R)-4-Ethyl-1,1-dioxido-3,4-dihydro-2H-pyrido[2,3-b][1,4,5]oxathiazepin-2-yl)methyl)-4-methylphenyl)-3-(1-ethyl-4-methyl-1H-benzo[d][1,2,3]triazol-5-yl)-N-(1-methyl-1H-pyrazol-5-yl)propanamide] the EC50 was 100 to 1000 nM.
In the case of `CC[C@@H]1CN(Cc2cc([C@H](CC(=O)Nc3cnccc3C)c3ccc4c(nnn4CC)c3C)ccc2C)S(=O)(=O)c2cccnc2O1` [Example 10, (S)-3-(3-(((R)-4-Ethyl-1,1-dioxido-3,4-dihydro-2H-pyrido[2,3-b][1,4,5]oxathiazepin-2-yl)methyl)-4-methylphenyl)-3-(1-ethyl-4-methyl-1H-benzo[d][1,2,3]triazol-5-yl)-N-(4-methylpyridin-3-yl)propanamide], the EC50 is reported as 100 to 1000 nM.
Compound `CC[C@@H]1CN(Cc2cc([C@H](CC(=O)Nc3cnccc3OC)c3ccc4c(nnn4CC)c3C)ccc2C)S(=O)(=O)c2cccnc2O1` [Example 11, (S)-3-(3-(((R)-4-Ethyl-1,1-dioxido-3,4-dihydro-2H-pyrido[2,3-b][1,4,5]oxathiazepin-2-yl)methyl)-4-methylphenyl)-3-(1-ethyl-4-methyl-1H-benzo[d][1,2,3]triazol-5-yl)-N-(4-methoxypyridin-3-yl)propanamide] has an EC50 of 10 to 100 nM.
`CC[C@@H]1CN(Cc2cc([C@H](CC(=O)Nc3cncc(C(F)(F)F)c3)c3ccc4c(nnn4CC)c3C)ccc2C)S(=O)(=O)c2cccnc2O1` [Example 12, (S)-3-(3-(((R)-4-Ethyl-1,1-dioxido-3,4-dihydro-2H-pyrido[2,3-b][1,4,5]oxathiazepin-2-yl)methyl)-4-methylphenyl)-3-(1-ethyl-4-methyl-1H-benzo[d][1,2,3]triazol-5-yl)-N-(5-(trifluoromethyl)pyridin-3-yl)propanamide] showed an EC50 of 10 to 100 nM.
Compound `CC[C@@H]1CN(Cc2cc([C@H](CC(=O)Nc3cncc(OC)c3)c3ccc4c(nnn4CC)c3C)ccc2C)S(=O)(=O)c2cccnc2O1` [Example 13, (S)-3-(3-(((R)-4-Ethyl-1,1-dioxido-3,4-dihydro-2H-pyrido[2,3-b][1,4,5]oxathiazepin-2-yl)methyl)-4-methylphenyl)-3-(1-ethyl-4-methyl-1H-benzo[d][1,2,3]triazol-5-yl)-N-(5-methoxypyridin-3-yl)propanamide] has an EC50 of 10 to 100 nM.
For `CC[C@@H]1CN(Cc2cc([C@H](CC(=O)Nc3ccc(C(F)(F)F)nc3)c3ccc4c(nnn4CC)c3C)ccc2C)S(=O)(=O)c2cccnc2O1` [Example 14, (S)-3-(3-(((R)-4-Ethyl-1,1-dioxido-3,4-dihydro-2H-pyrido[2,3-b][1,4,5]oxathiazepin-2-yl)methyl)-4-methylphenyl)-3-(1-ethyl-4-methyl-1H-benzo[d][1,2,3]triazol-5-yl)-N-(6-(trifluoromethyl)pyridin-3-yl)propanamide], the EC50 was 100 to 1000 nM.
`CC[C@@H]1CN(Cc2cc([C@H](CC(=O)Nc3ccc(C)nc3)c3ccc4c(nnn4CC)c3C)ccc2C)S(=O)(=O)c2cccnc2O1` [Example 15, (S)-3-(3-(((R)-4-Ethyl-1,1-dioxido-3,4-dihydro-2H-pyrido[2,3-b][1,4,5]oxathiazepin-2-yl)methyl)-4-methylphenyl)-3-(1-ethyl-4-methyl-1H-benzo[d][1,2,3]triazol-5-yl)-N-(6-methylpyridin-3-yl)propanamide] was tested, and the EC50 was 100 to 1000 nM.

From patent US11078216B2, “Bisaryl amides as NRF2 activators” (GLAXOSMITHKLINE INTELLECTUAL PROPERTY DEVELOPMENT LIMITED, priority 2016, dated 2021)
